A word on the EC50: it is the midpoint of the concentration-response curve.

SMILES strings stand for the structures. Converted amounts (≈) assume the structure as drawn.

Holding throughout (assay type): cell-based
The test system of experiment [1] is Phytophthora cactorum. The experiment in a line: 96 well plate test (amended agar with spores). The following applies: 96 well plate, 20, 2, 0.2 and 0.02 ppm, 1% PDA, 2 to 3 days (cells marked *), read-out: EC50 Phytophthora spp. (*96 well plate format vs. Phytophthora cactorum). As to the method:
Compounds were screened in 96 well plates with 10 compounds per plate. Each compound was screened using agar amended to 20, 2, 0.2 and 0.02 ppm, with Proline at 50 and 10 ppm and 0.2% DMSO used as controls. Each test concentration and standard was replicated twice on a plate. Compounds were screened against Phytophthora cactorum. The agar used in the test is a 1% PDA. 1000 spores/mL agar were added to the appropriate agar.
A ×10 stock solution in 2% DMSO was produced for each dose i.e. 200, 20, 2 and 0.2 ppm, and 10 μl of this added to the appropriate wells on the plate. An equivalent amount of 2% DMSO and Proline stock at 500 and 100 ppm were added for the controls. To each well 90 μl of the appropriate agar spore suspension was added to give the required final well concentrations. Plates were incubated at room temperature (18° C.) and assessed after 2 to 3 days. The amount of pathogen growth in each well was compared to the DMSO controls and an EC50 concentration was calculated. The results are provided in Table 1 in which G represents an EC50 above 20 ppm, F represents an EC50 of 1-20 ppm and E represents an EC50 less than 1 ppm.

The test system of experiment [2] is oomycete plant pathogens. The experiment in a line: Fungicidal activity testing, overall summary. The following applies: summary statement on Table 1. The procedure:
The activity of compounds of the invention was assessed by testing against certain oomycete plant pathogens and representative data are presented in Table 1.

The subject of experiment [3] is Pythium ultimum. The experiment in a line: Amended agar assay (PDA), colony growth. Particulars: Globisporangium ultimum; read-out: % control Pythium ultimum 2 ppm.
In experiment [4] the test system is Pythium ultimum. The experiment in a line: Amended agar assay (PDA), colony growth. Particulars: Globisporangium ultimum; 20 ppm in amended PDA, 18° C., reduction in colony growth vs control plate. As to the method:
(§1) Testing was carried out on potato dextrose agar (PDA) amended with each compound at a test concentration of 20 ppm. Amended agar was poured into three replicate 9 cm petri dishes. Each replicate dish was inoculated in the centre with a 5 mm agar plug taken from the leading edge of a culture aged between 2 and 7 days old; the age of the culture was dependant on the growth rate of the pathogen being tested. The test pathogens were Pythium ultimum and Phytophthora cinnamomi. Plates were incubated at 18° C. and the diameter of each colony measured before growth on the fastest growing plate reached the plate edge. This varied between 2 and 7 days depending on the growth rate of test pathogens. The % reduction in colony growth compared to the control plate was calculated for each pathogen. The results are provided in Table 1, in which D represents no control detected at this concentration; C represents up to 50% control; B from 50 to 99% control; and A represents a control of greater than 99%, i.e. no detectable colony growth.
(§2) Alternatively, or in addition, the same assay was conducted at descending test concentrations with 5-fold dilutions typically down to 0.032 ppm though sometimes as low as 0.00026 ppm, and an EC50 (the concentration at which 50% control would be achieved) was determined. The results are provided in Table 1 in which G represents an EC50 above 20 ppm, F represents an EC50 of 1-20 ppm and E represents and EC50 less than 1 ppm.

For experiment [5], the system named is Phytophthora cinnamomi. The experiment in a line: Amended agar assay (PDA), colony growth. The following applies: Phytophthora cinnamomi; 20 ppm in amended PDA, 18° C., reduction in colony growth vs control plate; read-out: % control Phytophthora spp. 20 ppm. The procedure:
as §1, §2

With `Cn1nnnc1-n1c(SCc2nccs2)nc2ccccc21` [Example 34], the EC50 in experiment [1] lay in the range of 1 to 20 µg/mL (≈ 3.04 to 60.7 µM). In addition, in experiment [2], the “control over the pathogens tested” value is “good to excellent control”. The inhibition of growth at 2 ppm in experiment [3] is 50 to 99%. This compound also came in with an inhibition of growth at 20 ppm in experiment [4] greater than 99%.

On to `Cc1ccnc(CSc2nc3ccccc3n2-c2nnnn2C)c1` [Example 37], for which the 50% effective concentration (EC50) in experiment [1] lay within 1 to 20 µg/mL (≈ 2.96 to 59.3 µM). Besides, the “control over the pathogens tested” value in experiment [2] is “good to excellent control”. For the same compound, in experiment [3], the inhibition of growth at 2 ppm fell in the range of 50 to 99%. This compound also had an inhibition of growth at 20 ppm in experiment [4] greater than 99%.

Consider `Clc1cncnc1-n1c(SCc2ccccn2)nc2ccccc21` [Example 59, 1-(5-Chloropyrimidin-4-yl)-2-((pyridin-2-ylmethyl)thio)-1H-benzo[d]imidazole], for which, in experiment [1], the EC50 was in the range of 1 to 20 µg/mL (≈ 2.83 to 56.5 µM). Besides, the “control over the pathogens tested” value in experiment [2] is “good to excellent control”. In addition, in experiment [3], the inhibition of growth at 2 ppm is greater than 99%. Moreover, the inhibition of growth at 20 ppm in experiment [4] and in experiment [5] was greater than 99% throughout.

`COc1ccnc(CSc2nc3cc(Cl)ccc3n2-c2nnnn2C)c1` [Example 66]: the EC50 in experiment [1] is 1 to 20 µg/mL (≈ 2.58 to 51.6 µM). In addition, the “control over the pathogens tested” value in experiment [2] is “good to excellent control”. Also, the inhibition of growth at 2 ppm in experiment [3] was greater than 99%.

With `Cn1nnnc1-n1c(SCc2ccccn2)nc2cc(Cl)ccc21` [Example 67], the EC50 in experiment [1] is 1 to 20 µg/mL (≈ 2.79 to 55.9 µM). The “control over the pathogens tested” value in experiment [2] is “good to excellent control”. In addition, in experiment [3], the inhibition of growth at 2 ppm is greater than 99%.

Take `Cc1ccc(CSc2nc3ccccc3n2-c2nnnn2C)nc1` [Example 69]: in experiment [1], the EC50 lay in the range of 1 to 20 µg/mL (≈ 2.96 to 59.3 µM). Further, in experiment [2], the “control over the pathogens tested” value is “good to excellent control”. In addition, the inhibition of growth at 2 ppm in experiment [3] is greater than 99%.

Consider `Cn1nnnc1-n1c(SCc2cc(C#N)ccn2)nc2ccccc21` [Example 70], for which, in experiment [1], the EC50 was in the range of 1 to 20 µg/mL (≈ 2.87 to 57.4 µM). In addition, the “control over the pathogens tested” value in experiment [2] was “good to excellent control”. In addition, the inhibition of growth at 2 ppm in experiment [3] was greater than 99%.

For `COc1ccc(CSc2nc3ccccc3n2-c2nnnn2C)nc1` [Example 73], the EC50 in experiment [1] is 1 to 20 µg/mL (≈ 2.83 to 56.6 µM). For the same compound, the “control over the pathogens tested” value in experiment [2] is on record as “good to excellent control”. Further, the inhibition of growth at 2 ppm in experiment [3] was greater than 99%.

In the case of `Cn1nnnc1-n1c(SCc2ccc(Br)cn2)nc2ccccc21` [Example 75], the EC50 in experiment [1] lay in the range of 1 to 20 µg/mL (≈ 2.49 to 49.7 µM). In experiment [2], the “control over the pathogens tested” value is recorded as “good to excellent control”. The inhibition of growth at 2 ppm in experiment [3] is greater than 99%.

Regarding `Cn1nnnc1-n1c(SCc2ccc(Cl)cn2)nc2ccccc21` [Example 76], the concentration for a half-maximal effect (EC50) in experiment [1] was in the range of 1 to 20 µg/mL (≈ 2.79 to 55.9 µM). Moreover, the “control over the pathogens tested” value in experiment [2] is “good to excellent control”. Moreover, in experiment [3], the inhibition of growth at 2 ppm is greater than 99%.

Take `Cn1nnnc1-n1c(SCc2cc(C(F)(F)F)ccn2)nc2ccccc21` [Example 78]: the EC50 in experiment [1] lay within 1 to 20 µg/mL (≈ 2.56 to 51.1 µM). Further, in experiment [2], the “control over the pathogens tested” value is recorded as “good to excellent control”. Further, the inhibition of growth at 2 ppm in experiment [3] was greater than 99%.

With `Cn1nnnc1-n1c(SCc2cccc(NC(=O)OC(C)(C)C)n2)nc2cccc(Cl)c21` [Example 83], in experiment [1], the EC50 is 1 to 20 µg/mL (≈ 2.11 to 42.3 µM). Also, the “control over the pathogens tested” value in experiment [2] was “good to excellent control”. Further, the inhibition of growth at 2 ppm in experiment [3] is 50 to 99%.

Consider `COc1cc(F)cc2c1nc(SCc1cccc(NC(=O)OC(C)(C)C)n1)n2-c1nnnn1C` [Example 84], for which the EC50 in experiment [1] lay within 1 to 20 µg/mL (≈ 2.06 to 41.1 µM). Further, the “control over the pathogens tested” value in experiment [2] is listed as “good to excellent control”. Besides, in experiment [3], the inhibition of growth at 2 ppm was greater than 99%.

With `Cn1nnnc1-n1c(SCc2cccc(NCc3ccccc3)n2)nc2ccccc21` [Example 88, N-Benzyl-6-(((1-(1-methyl-1H-tetrazol-5-yl)-1H-benzo[d]imidazol-2-yl)thio)methyl)pyridin-2-amine], the EC50 in experiment [1] was less than 1 µg/mL. Moreover, the “control over the pathogens tested” value in experiment [2] is reported as “good to excellent control”. In addition, in experiment [3], the inhibition of growth at 2 ppm was greater than 99%.

For the origin of these results see patent publication US11224224B2, “Thiobenzoimidazole as fungicides” (REDAG CROP PROTECTION LTD, priority 2017, dated 2022).
